From the supplement of paper PMC10307832

What was measured:
Assay in all cases: relative viability (nuclei count vs DMSO), 5 days (fraction); higher = more cells survive
FG-4592 + Navitoclax = compound: Cc1nc(C(=O)NCC(=O)O)c(O)c2ccc(Oc3ccccc3)cc12 [FG-4592] + CC1(C)CCC(c2ccc(Cl)cc2)=C(CN2CCN(c3ccc(C(=O)NS(=O)(=O)c4ccc(N[C@H](CCN5CCOCC5)CSc5ccccc5)c(S(=O)(=O)C(F)(F)F)c4)cc3)CC2)C1 [Navitoclax] (partner 0.5 µM)
Outline: (§1)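 Each reported value is a median over duplicate plates. It expresses relative viability: treated-well nuclei count divided by vehicle-well nuclei count. Lung cancer cell lines in 1536-well plates were dosed by pin tool a day after seeding, alone with one drug or with a fixed anchor-drug dose plus five library-drug doses (not always all listed) in √10 steps, and nuclei were counted after 5 days.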

IU1-47 + Foretinib = compound: CC1=CC(=C(N1C2=CC=C(C=C2)Cl)C)C(=O)CN3CCCCC3 [IU1-47] + COc1cc2c(Oc3ccc(NC(=O)C4(C(=O)Nc5ccc(F)cc5)CC4)cc3F)ccnc2cc1OCCCN1CCOCC1 [Foretinib] (partner 0.25 µM)
Outline: as §1

IU1-47 + Vorinostat = compound: CC1=CC(=C(N1C2=CC=C(C=C2)Cl)C)C(=O)CN3CCCCC3 [IU1-47] + O=C(CCCCCCC(=O)Nc1ccccc1)NO [Vorinostat] (partner 1 µM)
Outline: as §1

FG-4592 + Trametinib = compound: Cc1nc(C(=O)NCC(=O)O)c(O)c2ccc(Oc3ccccc3)cc12 [FG-4592] + CC(=O)Nc1cccc(-n2c(=O)n(C3CC3)c(=O)c3c(Nc4ccc(I)cc4F)n(C)c(=O)c(C)c32)c1 [Trametinib] (partner 0.02 µM)
Outline: as §1

Cell Line	relative viability (FG-4592 + Navitoclax; first compound 0.08 µM)	relative viability (FG-4592 + Navitoclax; first compound 0.253 µM)	relative viability (FG-4592 + Navitoclax; first compound 0.8 µM)	relative viability (FG-4592 + Navitoclax; first compound 2.53 µM)	relative viability (FG-4592 + Navitoclax; first compound 8 µM)	relative viability (IU1-47 + Foretinib; first compound 0.08 µM)	relative viability (IU1-47 + Foretinib; first compound 0.253 µM)	relative viability (IU1-47 + Foretinib; first compound 0.8 µM)	relative viability (IU1-47 + Foretinib; first compound 2.53 µM)	relative viability (IU1-47 + Foretinib; first compound 8 µM)	relative viability (IU1-47 + Vorinostat; first compound 0.08 µM)	relative viability (IU1-47 + Vorinostat; first compound 0.253 µM)	relative viability (IU1-47 + Vorinostat; first compound 0.8 µM)	relative viability (IU1-47 + Vorinostat; first compound 2.53 µM)	relative viability (IU1-47 + Vorinostat; first compound 8 µM)	relative viability (FG-4592 + Trametinib; first compound 0.08 µM)	relative viability (FG-4592 + Trametinib; first compound 0.253 µM)	relative viability (FG-4592 + Trametinib; first compound 0.8 µM)	relative viability (FG-4592 + Trametinib; first compound 2.53 µM)	relative viability (FG-4592 + Trametinib; first compound 8 µM)
HCC-366	1.07	0.903	1.12	1.1	1.04	0.872	0.92	1	0.966	1.01	0.298	0.283	0.378	0.453	0.342	0.326	0.347	0.246	0.361	0.271
HCC-827	1.03	1.01	0.992	1.02	1.09	1.15	1.12	0.998	1.02	1.01	0.966	1.08	1.02	0.879	0.558	0.495	0.491	0.48	0.532	0.506
HOP-62	1.04	1.01	1.2	0.983	1.03	1.17	1.12	1.04	1.11	1.13	0.693	0.675	0.752	0.433	0.532	0.399	0.354	0.353	0.392	0.334
IA-LM	0.785	0.707	0.899	0.481	0.397	1.02	1.12	0.936	1.17	1	0.951	1.13	1.11	0.444	1.06	–	–	–	–	–
LC-2-ad	0.489	0.465	0.329	0.458	0.503	1	1.07	0.908	0.794	0.878	0.736	0.736	0.71	–	0.715	0.896	0.675	0.953	0.842	0.967
LCLC-97TM1	0.396	0.489	0.306	–	0.496	0.957	1.02	0.892	0.725	0.856	0.919	0.869	0.82	–	0.571	0.211	0.241	–	0.225	0.148
LCLC-103H	–	–	–	–	–	0.786	0.864	0.846	0.73	0.865	0.748	0.819	0.82	0.561	0.704	0.713	0.582	0.684	0.684	0.69
LK-2	0.87	0.771	0.734	0.836	0.674	1.8	1.82	1.78	0.89	0.943	0.21	0.195	0.175	0.331	0.274	0.599	0.661	0.628	0.621	0.516
LOU-NH91	0.709	0.624	0.635	0.711	0.617	0.988	1	0.903	0.891	0.966	1.09	1.04	0.912	1.04	0.82	0.807	0.766	0.724	0.773	0.748
LU99A	0.869	0.709	0.75	0.832	0.718	0.768	0.759	0.859	0.932	0.702	0.557	0.513	0.5	0.579	0.426	0.548	0.467	–	0.503	0.523
NCI-H358	–	–	–	–	–	0.828	0.628	0.863	0.652	0.658	0.828	0.708	0.72	0.781	0.619	0.138	0.135	0.122	0.16	0.124
NCI-H522	–	–	–	–	–	–	–	–	–	–	0.95	0.903	0.884	0.695	0.851	0.798	0.712	–	0.676	0.873
NCI-H650	–	–	–	–	–	1.06	1.01	1.02	0.881	1.07	0.61	0.562	0.451	0.37	0.483	1.06	0.936	0.916	1	0.838
NCI-H661	–	–	–	–	–	1.14	1.16	1.07	0.93	1.2	0.805	0.861	0.798	0.836	0.761	0.559	0.525	0.536	0.554	0.525
NCI-H1299	1.07	1.03	1.02	1.02	1.1	1.1	1.11	1.09	1.18	1.01	–	–	–	–	–	–	–	–	–	–
NCI-H1563	–	–	–	–	–	0.855	0.988	0.967	0.886	0.864	–	–	–	–	–	–	–	–	–	–
NCI-H1623	–	–	–	–	–	1.05	0.903	0.892	0.841	0.833	–	–	–	–	–	–	–	–	–	–
NCI-H1648	–	–	–	–	–	–	–	–	–	–	0.455	0.402	0.999	0.265	0.399	0.485	0.445	–	0.456	0.493
NCI-H1703	1.01	0.862	1.16	1.13	1.02	0.342	0.315	0.278	0.377	0.361	–	–	–	–	–	–	–	–	–	–
NCI-H1792	0.619	0.554	0.575	0.611	0.644	–	–	–	–	–	–	–	–	–	–	0.429	0.435	–	0.414	0.375
NCI-H2342	–	–	–	–	–	1.24	1.06	0.935	1.07	1.03	0.833	0.836	0.975	1.03	0.825	0.755	0.841	0.746	0.738	0.641
SW 900	–	–	–	–	–	1.24	0.849	0.852	1.18	0.734	0.361	–	0.616	0.603	0.428	–	0.819	–	0.871	0.619
